# Measured values reported in patent US11524966B1 (Valo Early Discovery, Inc., priority 2017, dated 2022).
# Target: T1, USP28 (USP28-5(1-1077)-TEV-6*His; LifeSensors) (Homo sapiens, UniProt Q96RU2)
# T1 construct: construct USP28 (USP28-5(1-1077)-TEV-6*His; LifeSensors); TEV cleavage site (C); 6xHis (C); purchased LifeSensors
# T1 sequence (Q96RU2 1-1077): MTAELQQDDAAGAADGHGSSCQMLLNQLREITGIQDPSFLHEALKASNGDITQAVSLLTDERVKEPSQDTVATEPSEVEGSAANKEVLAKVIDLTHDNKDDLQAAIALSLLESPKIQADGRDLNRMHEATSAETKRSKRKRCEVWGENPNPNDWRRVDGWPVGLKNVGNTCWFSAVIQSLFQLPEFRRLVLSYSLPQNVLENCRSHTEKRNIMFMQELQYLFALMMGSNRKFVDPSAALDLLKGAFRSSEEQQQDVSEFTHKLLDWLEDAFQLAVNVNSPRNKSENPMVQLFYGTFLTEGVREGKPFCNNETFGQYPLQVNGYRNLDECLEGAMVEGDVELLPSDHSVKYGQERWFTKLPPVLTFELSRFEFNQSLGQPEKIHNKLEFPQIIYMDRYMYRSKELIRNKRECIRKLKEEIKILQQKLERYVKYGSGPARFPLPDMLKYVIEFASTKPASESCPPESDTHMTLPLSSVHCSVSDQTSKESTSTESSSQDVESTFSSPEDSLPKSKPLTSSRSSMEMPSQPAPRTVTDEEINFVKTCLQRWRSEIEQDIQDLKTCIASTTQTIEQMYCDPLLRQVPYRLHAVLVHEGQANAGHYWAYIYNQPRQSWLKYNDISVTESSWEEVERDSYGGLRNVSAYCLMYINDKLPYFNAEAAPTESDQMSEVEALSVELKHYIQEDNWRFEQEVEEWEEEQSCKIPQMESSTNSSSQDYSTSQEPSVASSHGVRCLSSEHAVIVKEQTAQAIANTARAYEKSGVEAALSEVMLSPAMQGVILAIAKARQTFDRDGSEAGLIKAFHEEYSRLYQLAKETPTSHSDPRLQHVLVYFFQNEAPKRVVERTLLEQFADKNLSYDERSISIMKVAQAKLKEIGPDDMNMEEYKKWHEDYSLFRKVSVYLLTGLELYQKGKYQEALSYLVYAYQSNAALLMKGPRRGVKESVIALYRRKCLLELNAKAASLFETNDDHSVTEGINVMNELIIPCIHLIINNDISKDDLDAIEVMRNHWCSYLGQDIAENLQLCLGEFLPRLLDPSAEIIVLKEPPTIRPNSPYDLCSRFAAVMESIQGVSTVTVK
# Test: Ubiquitin-Rhodamine 110 Assay for USP28 Activity, Example A-1(b)
# Type: biochemical
# Details: Ub-Rh110 assay, Example A-1(b)
# Outline: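 Single-point screening used 10 μM compound with 90 min room-temperature incubation; follow-up dose-responses (25 μM top, 3-fold) used 75 pM USP28 1-1077 construct, 30 min compound preincubation, 25 nM Ub-Rh110, 20 min reaction, citric acid quench. Rh110 fluorescence normalised to no-enzyme and DMSO controls; IC50 from 4-parameter logistic fit.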
row,Compound,USP28 A-1(b) IC50 range
1,"Cc1ccc2c(N)c(C(=O)N[C@H]3COc4cc(N5CCN[C@@H](C)[C@H]5C)ccc4C3)sc2n1 (single isomer, unassigned) [Example 1-7]",++++ (0.001-0.05 μM)

# Same assay, conditions: Ubiquitin-Rhodamine 110 assay, format Example A-1(b)
row,Compound,USP28 A-1(b) IC50 range
1,"Cc1cnc2c(N)c(C(=O)N[C@@H]3CCc4cc(N5CC6CCC(C5)N6)c(C#N)cc4C3)sc2n1 (single isomer, unassigned) [Example 14-7]",++ (0.2-2 μM)
2,"Cc1cnc2c(N)c(C(=O)N[C@H]3CCc4cc(N5CC6CCC(C5)N6)c(C#N)cc4C3)sc2n1 (single isomer, unassigned) [Example 14-8]",++++ (0.001-0.05 μM)
3,"Cc1nc2sc(C(=O)N[C@@H]3CCc4cc(N5CC6CCC(C5)N6)ccc4C3)c(N)c2s1 (single isomer, unassigned) [Example 12-2]",++ (0.2-2 μM)
4,"Cc1ccc2c(N)c(C(=O)N[C@H]3CCc4c(ccc(N5CC6CCC(C5)N6)c4C#N)C3)sc2n1 (single isomer, unassigned) [Example 14-2]",++ (0.2-2 μM)
5,"Cc1nc2sc(C(=O)N[C@H]3CCc4cc(N5CCNCC5)ccc4C3)c(N)c2s1 (single isomer, unassigned) [Example 11-33]",+ (>2 μM)
6,"Cc1ccc2c(N)c(C(=O)N[C@@H]3CCc4c(ccc(N5CC6CCC(C5)N6)c4C#N)C3)sc2n1 (single isomer, unassigned) [Example 14-1]",++++ (0.001-0.05 μM)
7,"Cc1ccc2c(N)c(C(=O)N[C@@H]3CCc4cc(N5CC6CCC(C5)N6)c(C#N)cc4C3)sc2n1 (single isomer, unassigned) [Example 14-3]",++ (0.2-2 μM)
8,"Cc1cnc2c(N)c(C(=O)N[C@@H]3CCc4c(ccc(N5CC6CCC(C5)N6)c4C#N)C3)sc2n1 (single isomer, unassigned) [Example 14-5]",+++ (0.05-0.2 μM)
9,"Cc1ccc2c(N)c(C(=O)N[C@H]3CCc4cc(N5CC6CCC(C5)N6)c(C#N)cc4C3)sc2n1 (single isomer, unassigned) [Example 14-4]",++++ (0.001-0.05 μM)
10,"Cc1cnc2c(N)c(C(=O)N[C@H]3CCc4c(ccc(N5CC6CCC(C5)N6)c4C#N)C3)sc2n1 (single isomer, unassigned) [Example 14-6]",+ (>2 μM)
